In patent publication US20250171438A1 (Agios Pharmaceuticals, Inc., priority 2022, published 2025) one finds AC50 data, which are given here for 36 molecules.

The first experiment concerns the target T1, human PAH with the R408W mutation (Homo sapiens, UniProt P00439, R408W).
T1 construct: expressed in transfected cells
T1 sequence (P00439 1-452 R408W): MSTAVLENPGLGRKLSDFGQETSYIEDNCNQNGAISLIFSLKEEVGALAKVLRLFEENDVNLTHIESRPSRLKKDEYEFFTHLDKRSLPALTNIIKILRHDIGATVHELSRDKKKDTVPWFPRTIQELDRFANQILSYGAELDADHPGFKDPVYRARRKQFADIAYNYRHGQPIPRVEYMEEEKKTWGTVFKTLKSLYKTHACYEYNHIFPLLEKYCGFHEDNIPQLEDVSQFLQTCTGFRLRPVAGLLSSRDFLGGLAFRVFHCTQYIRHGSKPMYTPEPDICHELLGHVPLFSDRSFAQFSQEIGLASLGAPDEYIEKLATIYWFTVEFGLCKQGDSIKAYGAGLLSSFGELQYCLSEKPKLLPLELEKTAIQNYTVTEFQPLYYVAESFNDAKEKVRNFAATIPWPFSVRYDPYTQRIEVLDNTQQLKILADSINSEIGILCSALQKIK
Put plainly: Cell Based Phenylalanine Flux Assay. The conditions noted are these: A375 cells expressing human R408W PAH; 24 hrs compound incubation; 13C-Tyrosine by LC-MS; average where tested multiple times; read-out: AC50.
For the molecule `O=C(c1sc(N2CCOCC2)nc1C(F)(F)F)N1CCc2[nH]cnc2[C@@H]1c1nc2c(F)cccc2s1` [Example 1634, (R)-(4-(4-fluorobenzo[d]thiazol-2-yl)-6,7-dihydro-1H-imidazo[4,5-c]pyridin-5(4H)-yl)(2-morpholino-4-(trifluoromethyl)thiazol-5-yl)methanone], the AC50 fell in the range of 500 to 1000 nM.

As to `O=C(c1nnc(-c2c(F)cccc2F)o1)N1CCc2[nH]cnc2[C@@H]1c1nc2ccccc2s1` [Example 1368, (R)-(4-(benzo[d]thiazol-2-yl)-6,7-dihydro-1H-imidazo[4,5-c]pyridin-5(4H)-yl)(5-(2,6-difluorophenyl)-1,3,4-oxadiazol-2-yl)methanone], the AC50 was less than 500 nM.

Turning to `Cc1c(-c2nnc(C(=O)N3CCc4[nH]cnc4[C@@H]3c3nc4ccccc4s3)o2)cnn1C` [Example 1846, (R)-(4-(benzo[d]thiazol-2-yl)-6,7-dihydro-1H-imidazo[4,5-c]pyridin-5(4H)-yl)(5-(1,5-dimethyl-1H-pyrazol-4-yl)-1,3,4-oxadiazol-2-yl)methanone], the AC50 lay in the range of 1000 to 5000 nM.

Regarding `O=C(c1oc(-c2ccccn2)nc1C1CC1)N1CCCc2[nH]cnc2[C@@H]1c1nc2ccccc2s1` [Example 2120, (R)-(4-(benzo[d]thiazol-2-yl)-7,8-dihydroimidazo[4,5-c]azepin-5(1H,4H,6H)-yl)(4-cyclopropyl-2-(pyridin-2-yl)oxazol-5-yl)methanone], the AC50 was 1000 to 5000 nM.

On to `O=C(N1CCc2[nH]cnc2[C@@H]1c1nc2ccccc2s1)C1(CF)CC1` [Example 1256, (R)-(4-(benzo[d]thiazol-2-yl)-6,7-dihydro-1H-imidazo[4,5-c]pyridin-5(4H)-yl)(1-(fluoromethyl)cyclopropyl)methanone], for which the AC50 is greater than 5000 nM.

Take `Cc1nnc(C(=O)N2CCc3[nH]cnc3[C@@H]2c2nc3c(F)cccc3s2)s1` [Example 1251, (R)-(4-(4-fluorobenzo[d]thiazol-2-yl)-6,7-dihydro-1H-imidazo[4,5-c]pyridin-5(4H)-yl)(5-methyl-1,3,4-thiadiazol-2-yl)methanone]: the AC50 was greater than 5000 nM.

As to `O=C(CC1CCC1)N1CCc2[nH]cnc2[C@@H]1c1nc2ccccc2s1` [Example 1308, (R)-1-(4-(benzo[d]thiazol-2-yl)-6,7-dihydro-1H-imidazo[4,5-c]pyridin-5(4H)-yl)-2-cyclobutylethanone], the AC50 lay within 1000 to 5000 nM.

Take `Cc1cccc2sc([C@H]3c4nc[nH]c4CCN3C(=O)c3ocnc3C(F)(F)F)nc12` [Example 2010, (R)-(4-(4-methylbenzo[d]thiazol-2-yl)-6,7-dihydro-1H-imidazo[4,5-c]pyridin-5(4H)-yl)(4-(trifluoromethyl)oxazol-5-yl)methanone]: the AC50 fell in the range of 500 to 1000 nM.

As for `COCCn1nccc1C(=O)N1CCc2[nH]cnc2[C@@H]1c1nc2c(F)cccc2s1` [Example 1724, (R)-(4-(4-fluorobenzo[d]thiazol-2-yl)-6,7-dihydro-1H-imidazo[4,5-c]pyridin-5(4H)-yl)(1-(2-methoxyethyl)-1H-pyrazol-5-yl)methanone], the AC50 was less than 500 nM.

With `O=C(c1nnc(-c2ccc(F)c(F)c2)o1)N1CCc2[nH]cnc2[C@@H]1c1nc2ccccc2s1` [Example 1802, (R)-(4-(benzo[d]thiazol-2-yl)-6,7-dihydro-1H-imidazo[4,5-c]pyridin-5(4H)-yl)(5-(3,4-difluorophenyl)-1,3,4-oxadiazol-2-yl)methanone], the AC50 fell in the range of 1000 to 5000 nM.

As to `C[C@@H](O)c1nc(C(F)F)c(C(=O)N2CCc3[nH]cnc3[C@H]2c2nc3c(C(F)(F)F)cccc3s2)o1` [Example 2109, (4-(difluoromethyl)-2-((R)-1-hydroxyethyl)oxazol-5-yl) ((S)-4-(4-(trifluoromethyl)benzo[d]thiazol-2-yl)-6,7-dihydro-1H-imidazo[4,5-c]pyridin-5(4H)-yl)methanone], the AC50 is less than 500 nM.

For `O=C(c1cncs1)N1CCc2[nH]cnc2[C@@H]1c1nc2ccc(Br)cc2[nH]1` [Example 948, (R)-(4-(6-bromo-1H-benzo[d]imidazol-2-yl)-6,7-dihydro-1H-imidazo[4,5-c]pyridin-5(4H)-yl)(thiazol-5-yl)methanone], the AC50 lay in the range of 1000 to 5000 nM.

As for `O=C(c1nc2cc(F)ccc2s1)N1CCc2[nH]cnc2[C@H]1c1nc2ccccc2s1` [Example 1095], the concentration at half-maximal activity (AC50) fell in the range of 500 to 1000 nM.

For the molecule `O=C(c1ccns1)N1CCc2[nH]cnc2[C@H]1c1nc2ccccc2s1` [Example 1051], the AC50 is 500 to 1000 nM.

With `COCc1ccc2c(C(=O)N3CCc4[nH]cnc4[C@@H]3c3nc4ccccc4s3)c(C#N)nn2c1` [Example 1865, (R)-3-(4-(benzo[d]thiazol-2-yl)-4,5,6,7-tetrahydro-1H-imidazo[4,5-c]pyridine-5-carbonyl)-6-(methoxymethyl)pyrazolo[1,5-a]pyridine-2-carbonitrile], the AC50 is greater than 5000 nM.

Turning to `Cn1nc(C(C)(C)C#N)nc1C(=O)N1CCc2[nH]cnc2[C@@H]1c1nc2ccccc2s1` [Example 2046, (R)-2-(5-(4-(benzo[d]thiazol-2-yl)-4,5,6,7-tetrahydro-1H-imidazo[4,5-c]pyridine-5-carbonyl)-1-methyl-1H-1,2,4-triazol-3-yl)-2-methylpropanenitrile], the AC50 is 1000 to 5000 nM.

Regarding `Cc1nc(C)c(C(=O)N2CCc3[nH]cnc3[C@H]2c2nc3c(F)cccc3s2)o1` [Example 1321], the AC50 is less than 500 nM.

As for `Cc1nc(C)c(C(=O)N2CCc3[nH]cnc3[C@@H]2c2nc3ccccc3s2)o1` [Example 1164, (R)-(4-(benzo[d]thiazol-2-yl)-6,7-dihydro-1H-imidazo[4,5-c]pyridin-5(4H)-yl)(2,4-dimethyloxazol-5-yl)methanone], the AC50 was greater than 5000 nM.

In the case of `O=C(c1nnc(-c2cnn(CC(F)(F)F)c2)o1)N1CCc2[nH]cnc2[C@H]1c1nc2c(F)cccc2s1` [Example 1844, (S)-(4-(4-fluorobenzo[d]thiazol-2-yl)-6,7-dihydro-1H-imidazo[4,5-c]pyridin-5(4H)-yl)(5-(1-(2,2,2-trifluoroethyl)-1H-pyrazol-4-yl)-1,3,4-oxadiazol-2-yl)methanone], the AC50 lay within 500 to 1000 nM.

Consider `O=C(C1CC1)N1CCc2[nH]cnc2[C@H]1c1nc2ccc(Cl)cc2[nH]1` [Example 960, (S)-(4-(6-chloro-1H-benzo[d]imidazol-2-yl)-6,7-dihydro-1H-imidazo[4,5-c]pyridin-5(4H)-yl)(cyclopropyl)methanone], for which the half-maximal activity concentration (AC50) lay in the range of 1000 to 5000 nM.

“(R)-(4-bromothiazol-5-yl)(4-(4-fluorobenzo[d]thiazol-2-yl)-6,7-dihydro-1H-imidazo[4,5-c]pyridin-5(4H)-yl)methanone [Example 1618]”: the AC50 fell in the range of 500 to 1000 nM.

On to `O=C(c1cnn2cc(Cl)ccc12)N1CCc2[nH]cnc2[C@H]1c1nc2ccccc2s1` [Example 1063], for which the AC50 was less than 500 nM.

For `CC(C)(O)c1ccc2c(C(=O)N3CCc4[nH]cnc4[C@@H]3c3nc4ccccc4s3)cnn2c1` [Example 1474, (R)-(4-(benzo[d]thiazol-2-yl)-6,7-dihydro-1H-imidazo[4,5-c]pyridin-5(4H)-yl)(6-(2-hydroxypropan-2-yl)pyrazolo[1,5-a]pyridin-3-yl)methanone], the AC50 was in the range of 1000 to 5000 nM.

With `CC(C)(O)c1ncc(C(=O)N2CC3(CC3)c3[nH]cnc3[C@H]2c2nc3ccccc3s2)o1` [Example 1677, (S)-(4′-(benzo[d]thiazol-2-yl)spiro[cyclopropane-1,7′-imidazo[4,5-c]pyridin]-5′(1′H,4′H,6′H)-yl)(2-(2-hydroxypropan-2-yl)oxazol-5-yl)methanone], the AC50 lay within 500 to 1000 nM.

For `Cc1nc(C(C)(C)F)oc1C(=O)N1CCc2[nH]cnc2[C@@H]1c1nc2c(F)cccc2s1` [Example 1500, (R)-(4-(4-fluorobenzo[d]thiazol-2-yl)-6,7-dihydro-1H-imidazo[4,5-c]pyridin-5(4H)-yl)(2-(2-fluoropropan-2-yl)-4-methyloxazol-5-yl)methanone], the AC50 lay in the range of 500 to 1000 nM.

On to `O=C(c1cn(-c2ccccn2)nc1Cl)N1CCc2[nH]cnc2[C@H]1c1nc2ccccc2s1` [Example 1907], for which the AC50 is 500 to 1000 nM.

`Cn1cc(-c2ncc(C(=O)N3CCc4[nH]cnc4[C@@H]3c3nc4ccccc4s3)s2)cn1` [Example 1230, (R)-(4-(benzo[d]thiazol-2-yl)-6,7-dihydro-1H-imidazo[4,5-c]pyridin-5(4H)-yl)(2-(1-methyl-1H-pyrazol-4-yl)thiazol-5-yl)methanone]: the concentration at half-maximal activity (AC50) lay in the range of 1000 to 5000 nM.

Consider `Cc1nc(C2CC2)oc1C(=O)N1CCc2[nH]cnc2[C@H]1c1nc2c(F)cccc2s1` [Example 1527], for which the AC50 is less than 500 nM.

Staying with this experiment, now noted: A375 cells expressing human R408W PAH; 24 hrs with compound; 13C-Tyrosine by LC-MS; average where tested multiple times; read-out: AC50.
For `Cn1cc(-c2cccc(C(=O)N3CCc4[nH]cnc4C3c3nc4ccccc4s3)c2)cn1` (stereo not drawn), the AC50 is greater than 5000 nM.

In the case of `Cc1ncc(C(=O)N2CCc3[nH]cnc3C2c2nc3ccccc3s2)s1` (stereo not drawn), the AC50 lay in the range of 1000 to 5000 nM.

In the case of `O=C(CCc1nccs1)N1CCc2[nH]cnc2C1c1nc2cc(F)ccc2s1` (stereo not drawn), the AC50 was greater than 5000 nM.

With `CC(C)(O)c1noc(C(=O)N2CCc3[nH]cnc3C2c2nc3c(F)cccc3s2)n1` (stereo not drawn), the AC50 lay within 1000 to 5000 nM.

Take `O=C(c1ccon1)N1CCc2[nH]cnc2C1c1nc2ccc(F)cc2[nH]1` (stereo not drawn): the AC50 is greater than 5000 nM.

Regarding `Cc1ccc2c(C(=O)N3CCc4[nH]cnc4C3c3nc4ccc(F)cc4s3)cnn2c1` (stereo not drawn), the AC50 lay within 1000 to 5000 nM.

As to `Cc1cc(C(=O)N2CCc3[nH]cnc3C2c2nc3c(F)cccc3s2)n(-c2ccc(F)cc2)n1` (stereo not drawn), the AC50 lay in the range of 1000 to 5000 nM.

Turning to `O=C(c1nnc(CCCN2CCOCC2)o1)N1CCc2[nH]cnc2C1c1nc2ccccc2s1` (stereo not drawn), the AC50 is greater than 5000 nM.

A word on the AC50: it is the midpoint of the concentration-response curve, whichever way the signal moves.
